Laboratory results: PubChem BioAssay (NCI)
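In this assay, cells in 96-well plates receive the compound at five concentrations for 48 hours. Endpoints are linearly interpolated between the surrounding concentrations. GI50 = concentration required for 50% inhibition of growth. The concentration for full growth arrest is given as TGI.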

Key:
Assay in all cases: NCI tumour cell line growth inhibition, 48 h
CCRF-CEM leukemia = tested on: CCRF-CEM leukemia
HOP-92 NSCLC = tested on: HOP-92 NSCLC
RPMI-8226 leukemia = tested on: RPMI-8226 leukemia
TK-10 renal = tested on: TK-10 renal
MCF7 breast = tested on: MCF7 breast
U251 CNS = tested on: U251 CNS
MDA-MB-435 = tested on: MDA-MB-435
HL-60(TB) leukemia = tested on: HL-60(TB) leukemia
T-47D breast = tested on: T-47D breast
UO-31 renal = tested on: UO-31 renal

Structure (SMILES) | TGI (CCRF-CEM leukemia) [µM] | TGI (HOP-92 NSCLC) [µM] | TGI (RPMI-8226 leukemia) [µM] | TGI (TK-10 renal) [µM] | TGI (MCF7 breast) [µM] | TGI (U251 CNS) [µM] | TGI (MDA-MB-435) [µM] | TGI (HL-60(TB) leukemia) [µM] | TGI (T-47D breast) [µM] | TGI (UO-31 renal) [µM] | GI50 (CCRF-CEM leukemia) [µM] | GI50 (HOP-92 NSCLC) [µM] | GI50 (TK-10 renal) [µM] | GI50 (MCF7 breast) [µM] | GI50 (MDA-MB-435) [µM] | GI50 (HL-60(TB) leukemia) [µM] | GI50 (UO-31 renal) [µM] | GI50 (RPMI-8226 leukemia) [µM] | GI50 (U251 CNS) [µM] | GI50 (T-47D breast) [µM]
CCN(CC)CCCC(C)Nc1ccnc2cc3ccccc3cc12 (stereo unspecified) | > 100 | > 100 | > 100 | 78.6 | 39 | 42.1 | 24.2 | 75.9 | 89.7 | 53.9 |  |  |  |  |  |  |  |  |  | 
O=C(C[C@H](NC(=O)OCc1ccccc1)C(=O)NC1Cc2ccccc2OC1=O)OCc1ccccc1 (stereo partly specified) | > 100 | > 100 | > 100 |  | 80.6 | > 100 | > 100 |  | > 100 | > 100 |  |  |  |  |  |  |  |  |  | 
Cc1ccc(NP(=O)(Oc2ccccc2)N(CCCl)CCCl)cc1 (stereo unspecified) |  | > 100 | > 100 | > 100 |  | > 100 |  | > 100 |  | > 100 |  |  |  |  |  |  |  |  |  | 
OC1(c2ccc(Cl)cc2)c2c(ccc3c2OCO3)C2=NCCN21 (stereo unspecified) | > 100 | 73.5 | 42.5 | 45.7 | > 100 | > 100 | > 100 | > 100 | > 100 | > 100 |  |  |  |  |  |  |  |  |  | 
O=C(O)c1cc(=O)[nH]c(SCc2ccccc2)n1 |  | > 100 |  | > 100 |  | > 100 | > 100 | > 100 | > 100 | > 100 |  |  |  |  |  |  |  |  |  | 
CC(C)CCC[C@@H](C)[C@H]1CC[C@H]2[C@@H]3CC[C@H]4C[C@H](N)CC[C@]4(C)[C@H]3CC[C@]12C | 8.5 | 34.6 | > 100 | 37.2 | 68.4 | 43.8 | > 100 | 68.6 | > 100 | 30.3 |  |  |  |  |  |  |  |  |  | 
COc1ccc(C2CC(c3cccc(Nc4ccncc4)c3)=NN2c2ccc(Cl)cc2)cc1 (stereo unspecified) | 7.74 | 2.44 |  | 3.5 | 3.63 |  | 3.05 | 4.06 |  | 2.51 | 2.5 | 1.12 | 1.82 | 1.83 | 1.63 | 1.91 | 1.2 |  |  | 
Cc1cccc2cc3c(ccc4ccccc43)c[n+]12 | > 100 |  | > 100 | > 100 | > 100 | 40.6 | > 100 | > 100 |  | > 100 |  |  |  |  |  |  |  |  |  | 
N#Cc1c(NC(=S)Nc2ccc(Cl)cc2)sc2c1CCCC2 |  |  | 67.9 | > 100 | > 100 | > 100 | > 100 | > 100 | > 100 | > 100 |  |  |  |  |  |  |  |  |  | 
CC(=O)Oc1c(C)c2c(O)c3c1C1=C(OCOC1=C(C)C3=O)/C(C)=C\C(C)(O)C(O)C(C)C(O)C1C(=O)OC(C(C)C1O)C(C)(O)/C=C/C=C(C)C(=O)N2 (stereo unspecified) | 61.4 | > 100 | > 100 |  | > 100 | > 100 | > 100 | 7.3 | > 100 | 46.5 |  |  |  |  |  |  |  |  |  | 
CSc1nc(NC2OCC(OC(C)=O)C(OC(C)=O)C2OC(C)=O)c(N=C(C)C(C)=O)c(=O)[nH]1 (stereo unspecified) | > 100 | > 100 | > 100 | > 100 |  | > 100 |  | > 100 |  |  |  |  |  |  |  |  |  |  |  | 
O=S1(=O)C(c2ccccc2)C(N2CCCCC2)C1C1CC2c3ccccc3C1c1ccccc12 (stereo unspecified) | > 24.3 | > 100 | > 100 | > 100 | > 100 | > 100 | > 100 | > 100 | > 100 | > 100 |  |  |  |  |  |  |  |  |  | 
COc1ccc2c(c1)CCN=C2Cc1cc(OC)c(OC)cc1CCCl | > 100 | > 100 | > 100 | > 100 | > 100 | > 100 | > 100 |  | > 100 | > 100 |  |  |  |  |  |  |  |  |  | 
O=C(C=P(c1ccccc1)(c1ccccc1)c1ccccc1)c1cccc(-c2cccc([N+](=O)[O-])c2)c1 | 7.63 | 5.77 | 4.53 | > 100 | > 100 | > 100 |  | 4.82 | > 100 | 20.3 |  |  |  |  |  |  |  |  |  | 
CN(c1cc2ncc(=O)[nH]c2cc1NC(N)=NCc1ccc(Cl)cc1)C1CCCCC1 | 15.6 | 5.95 | 13.4 | 15.2 | 7.52 | 13.4 | 12.8 | 12.7 | 17 | 15.8 | 6.33 | 0.793 | 7.44 | 1.75 | 6.34 | 5.36 | 8.21 | 3.54 | 5.96 | 5.82
CCN1C=C/C(=C\C=C/c2cc[n+](CC)c3ccccc23)c2ccccc21 | 30.9 | 37.5 | 12 | 28.1 | 20 | 13 | 14.2 | 15.1 | 28 | 35.6 |  |  |  |  |  |  |  |  |  | 
CCOC(=O)C[C@@H]1C2(C=C[C@@]13CO3)OCC(C)(C)CO2 | > 100 | > 100 |  | > 100 | > 100 | > 100 | > 100 | > 100 | > 100 | > 100 |  |  |  |  |  |  |  |  |  | 
C=CCc1cc(-c2cc(CC=C)c(O)c(CNC)c2)cc(CNC)c1O | 57 | 23.3 | 50.6 | 32.1 |  | 28.4 |  | 35.2 |  | 25.8 |  |  |  |  |  |  |  |  |  | 
CCCCCCCCCCCCCCCc1ccc(OCC(O)CO)cc1 (stereo unspecified) | > 100 | 47.8 | 53.2 | > 100 |  | 55.9 |  | 85 |  | > 100 |  |  |  |  |  |  |  |  |  | 
c1ccc(C2CC(c3cccc(Nc4ccncc4)c3)=NN2c2ccccc2)cc1 (stereo unspecified) | 5.68 | 2.95 |  | 3.6 | 3.29 | 3.94 | 3.2 | 3.73 | 4.7 | 2.8 | 2.09 | 1.45 | 1.86 | 1.61 | 1.69 | 1.65 | 1.48 |  | 1.87 | 2
CC(C)(C)OC(=O)NCC(=O)NC1c2ccsc2/C(=N/O)[C@H]1O (stereo partly specified) | > 100 | > 100 |  | > 100 | > 100 | > 100 | > 100 | > 100 | > 100 | > 100 |  |  |  |  |  |  |  |  |  | 
CO/C=C(/C(=O)OC)c1ccccc1[C@@H]1CC1c1cccc(F)c1 (stereo partly specified) | 87.7 | > 100 | 48.3 | > 100 | > 100 | > 100 | 44 | 57.9 | > 100 | > 100 |  |  |  |  |  |  |  |  |  | 
Cc1nc2c(n1C)C(=O)c1nc(CBr)[nH]c(=O)c1C2=O | > 100 | > 100 | > 100 | > 100 |  | > 100 |  | > 100 |  | > 100 |  |  |  |  |  |  |  |  |  | 
